Measurements from paper PMC7463460, “Structure and Antiparasitic Activity Relationship of Alkylphosphocholine Analogues against Leishmania donovani” (Microorganisms, 2020).
Several values for one entry are separate records, joined by “and”; a condition that tells them apart may be missing. Equal values may be shown once. Read-outs that look alike come from different tables or passages of the source.

What was measured:
[1] = tested on: visceral leishmaniasis; details: VL, 12 months post-treatment; cited from earlier work
[2] = tested on: L. donovani LV82 promastigotes; assay: Luciferase-expressing promastigote assay, strain LV82; type: cell-based, Leishmania donovani; details: for Promast: Amast Ratio: LV82; for IC50: Leishmania donovani, 72 h, LV82, 3 days, 25 °C
Procedure: The anti-leishmanial activity of APC against L. donovani luciferase-expressing promastigotes was determined by adding of the appropriate 100 µL parasite line (10^6 cells/mL) to the wells of a 96-well plate and adding 100 µL medium alone (controls) or 100 µL of APC compound (0.01 µg/mL–6.25 µg/mL, n = 3/treatment). The plate was incubated for 72 h at 25 °C. In combination assays, the additional compound/compounds, at a final concentration of 0.195 or 0.39 µg/mL, was added to the initial APC being tested.
(§1) Luciferin solution (1 µg/mL in 20 µL medium without FCS) was added to the appropriate wells of the 96-well plate at the end of the experiment and the amount of light emitted/well was measured using a luminometer (Biotek Synergy HT, relative light units) using a wavelength/bandwidth of 440/40 nm, or IVIS® imaging (Spectrum Living Image system®, total flux, photons/sec).
(§2) The effect of drug treatment on parasite survival was determined by calculating the mean suppression in the light emitted from the drug-treated experimental sample compared to the mean control value and used to calculate the IC50 using Grafit® software (version 5.0, Erithacus Software, East Grinstead, West Sussex, UK). The effect of drug alone on the viability of uninfected macrophages was determined using the same experimental protocol above, but cell viability was determined using an alamar blue colorimetric assay. At the end of the incubation period, cells’ 10 µL resazurin solution (0.02% w/v) was added to control and drug treated cells and the absorbance of samples was read at 575 and 595 nm. The effect of drug treatment on cell survival, which correlates with the magnitude of dye reduction, was expressed as percentage viability (or alamar blue reduction) and determined using the formula provided in the manufacturer’s protocol % alamar blue reduction=(εoxλ)(Aλ1)−(εoxλ1)(Aλ2)/(εredλ1)(A^′λ2)−(εredλ2)(A^′λ1)x100

[3] = Cytotoxicity against uninfected macrophages (alamar blue); type: cell-based, BALB/c mice; details: BALB/c, mouse, read-out: Macrophage mean IC50 (CC50) (converted)
Procedure: as §2
(§3) In the formula, ελ1 and ελ2 are constants representing the molar extinction coefficient of alamar blue at 575 and 595 nm, respectively, in the oxidized (εox) and reduced (εred) forms. Aλ1, Aλ2 and A’λ1, A’λ2 represent absorbance of test and negative control wells at 575 and 595 nm, respectively. The values of % alamar blue reduction (or % viability) were corrected for background values of negative controls containing medium without cells. Percent viability values were used to calculate the IC50 using Grafit® software (version 5.0).

[4] = tested on: L. donovani LV82 intracellular amastigotes; assay: Intracellular amastigote assay in bone-marrow-derived macrophages, strain LV82; type: cell-based, Leishmania donovani; details: for Selectivity Index (SI50): macrophage CC50 / LV82 intracellular amastigote IC50
Procedure: In the macrophage studies, the method described in previous studies was used as follows. […] It is possible that intracellular macrophage parasites could have been at different developmental stages at 24 h post-infection. […] Therefore, we assumed that the effect of compounds on the amastigote stage rather than the promastigotes stage was determined in in vitro macrophage studies.
The plate was incubated for a further 24 h, the medium removed, and each well washed with PBS to eliminate non-internalized parasites, which were monitored microscopically. […] Wells with macrophage and with no drug or promastigotes added were used in control experiments.
as §1
as §2, with “At the end of the incubation period, cells’ 10 µL resazurin solution (0.02% w/v) was added to control and drug treated cells and the absorbance of samples was read at 575 and 595 nm.” left out

[5] = tested on: bone-marrow-derived macrophages from BALB/c mice; assay: Cytotoxicity against uninfected macrophages (alamar blue); type: cell-based; details: 3 days
Procedure: as §2, §3

[6] = uninfected bone-marrow-derived macrophages
[7] = Leishmania donovani, Macrophage, in Mus musculus, 72 h, LV82, intracellular in BALB/c macrophages, 3 days, 37 °C
[8] = LV82, intracellular in BALB/c macrophages, 3 days, 37 °C

Row | Compound | cure rate [1] | Promast: Amast Ratio [2] | IC50 [2] | IC50 at 3 days [3, 6] | IC50 [4, 7] | Selectivity Index (SI50) [4] | IC50 at 3 days [3] | activity against L. donovani compared to controls ([2]; LV82 promastigotes and amastigotes) | Macrophage mean IC50 (CC50) [5] | IC50 ([5]; read-out: Macrophage mean IC50 (CC50) (converted)) | Amastigote mean IC50 [4, 8] | IC50 [4, 8]
1 | C[C@@H]1[C@H](O)[C@@H](C)/C=C/C=C/C=C/C=C/C=C/C=C/C=C/[C@H](O[C@@H]2O[C@H](C)[C@@H](O)[C@H](N)[C@@H]2O)C[C@@H]2O[C@](O)(C[C@@H](O)C[C@@H](O)[C@H](O)CC[C@@H](O)C[C@@H](O)CC(=O)O[C@H]1C)C[C@H](O)[C@H]2C(=O)O [AMB, amphotericin B] | 93.7% |  |  |  |  |  |  |  |  |  |  | 
2 | CC(C)CCC(CCC(C)C)OP(=O)([O-])OCC[N+](C)(C)C [APC11PC, 2,8-Dimethyl-5-Nonylphosphocholine] |  | >33.60 | > 6.25 µg/mL and > 18.6 µM | 61.9 µg/mL and 185 µM | 0.19 µg/mL and 550 nM | 335.56 |  |  |  |  |  | 
3 | C=CCCCCCCCCCOP(=O)([O-])OCC[N+](C)(C)C [APC11UPC, 10-Undecylenyl-1-phosphocholine] |  | 135.34 | 1.8 µg/mL and 5.37 µM | 54 µg/mL and 161 µM | 0.01 µg/mL and 40 nM | 4025.00 |  |  |  |  |  | 
4 | CCCCCCCCCCCCOP(=O)([O-])OCCCCCC[N+](C)(C)C [APC12P6C] |  | 33.33 | 33.5 µg/mL and 82.2 µM | 14.1 µg/mL and 34.6 µM | 1.01 µg/mL and 2.47 µM | 14.01 |  |  |  |  |  | 
5 | CCCCCCCCCCCC[N+](C)(C)CCCCCCCCCCCC [DAB, didodecyldimethyl ammonium bromide] |  | 0.79 | 0.04 µg/mL and 91 nM |  | 0.06 µg/mL and 119 nM | 1503.45 | 82.8 µg/mL and 179 µM |  |  |  |  | 
6 | CCCCCCCCCCCCOP(=O)(O)O [PO, mono –n-dodecyl phosphate] |  | >3.12 | > 6.25 µg/mL and > 25.1 µM | 100 µg/mL and 401 µM | > 2 µg/mL and > 8.02 µM | >50.00 |  | inactive |  |  |  | 
7 | dodecylamine [DA] |  | 0.18 |  |  |  | 79.88 |  |  | 37.60 ± 0.01 µg/mL | 203 µM | 0.47 ± 0.00 µg/mL | 2.54 µM
